Tested on: IgE antibodies from patients
Test: Wheat epitope mapping (2): overlapping 10-amino-acid peptide fragments shifted by one amino acid;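 note: key of grades: preferably = shorter partial sequence still acting as epitope; more preferably = sequence improving IgE binding; key = particularly important sequence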
Format: binding, human
Method in brief: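 Residual binding was banded as <30% none, 30–<50% poor, 50–<70% somewhat poor and ≥70% retained, relative to the parent overlapping sequence set to 100%. Values were chemiluminescent IgE signals from patient sera after subtracting secondary-antibody-only controls. The peptides were spot-synthesised 10-mers shifted by one amino acid.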

[1] = serum of patient G7 (adult, general immediate type allergy to wheat)
[2] = serum of patient G9 (adult, general immediate type allergy to wheat)

Substance: 1785 (LKKVGYNP; REGION 1..8: note = epitope) [compound 1785]
- epitope sequence binding to IgE antibody, rank (Key/Preferably/More preferably) [1]: Key

Substance: 1786 (KEVSSYLKK; REGION 1..9: note = epitope) [compound 1786]
- epitope sequence binding to IgE antibody, rank (Key/Preferably/More preferably) [2]: Preferably

Substance: 1787 (KEVSSYLK; REGION 1..8: note = epitope) [compound 1787]
- epitope sequence binding to IgE antibody, rank (Key/Preferably/More preferably) [2]: Key

Substance: 1788 (LKKVGYNP; REGION 1..8: note = epitope) [compound 1788]
- epitope sequence binding to IgE antibody, rank (Key/Preferably/More preferably) [2]: Key

Substance: 1790 (SGKELE; REGION 1..6: note = epitope) [compound 1790]
- epitope sequence binding to IgE antibody, rank (Key/Preferably/More preferably) (serum of patient P3 (WDEIA)): Key

Substance: 1791 (PKFL; REGION 1..4: note = epitope) [compound 1791]
- epitope sequence binding to IgE antibody, rank (Key/Preferably/More preferably) (serum of patient P3 (WDEIA)): Key

Substance: 1792 (SGKELE; REGION 1..6: note = epitope) [compound 1792]
- epitope sequence binding to IgE antibody, rank (Key/Preferably/More preferably) (serum of patient P8 (WDEIA)): Key

Substance: 1793 (SGKELEALPK; REGION 1..10: note = epitope) [compound 1793]
- epitope sequence binding to IgE antibody, rank (Key/Preferably/More preferably) (serum of patient P9 (WDEIA)): Key

Substance: 1796 (SGKELEALPK; REGION 1..10: note = epitope) [compound 1796]
- epitope sequence binding to IgE antibody, rank (Key/Preferably/More preferably) (serum of patient P15 (WDEIA)): Preferably

Substance: 1798 (EALPKFLKN; REGION 1..9: note = epitope) [compound 1798]
- epitope sequence binding to IgE antibody, rank (Key/Preferably/More preferably) (serum of patient P15 (WDEIA)): Preferably

Substance: 1799 (KFLK; REGION 1..4: note = epitope) [compound 1799]
- epitope sequence binding to IgE antibody, rank (Key/Preferably/More preferably) (serum of patient P15 (WDEIA)): Key

Substance: 1800 (KELEALPK; REGION 1..8: note = epitope) [compound 1800]
- epitope sequence binding to IgE antibody, rank (Key/Preferably/More preferably) (serum of patient P17 (WDEIA)): Key

Substance: 1801 (LEALPKFLKN; REGION 1..10: note = epitope) [compound 1801]
- epitope sequence binding to IgE antibody, rank (Key/Preferably/More preferably) (serum of patient P17 (WDEIA)): Key

Substance: 1802 (SGKELEALPK; REGION 1..10: note = epitope) [compound 1802]
- epitope sequence binding to IgE antibody, rank (Key/Preferably/More preferably) (serum of patient P18 (WDEIA)): Preferably

Substance: 1803 (SGKELE; REGION 1..6: note = epitope) [compound 1803]
- epitope sequence binding to IgE antibody, rank (Key/Preferably/More preferably) (serum of patient P18 (WDEIA)): Key

Substance: 1804 (KFLKN; REGION 1..5: note = epitope) [compound 1804]
- epitope sequence binding to IgE antibody, rank (Key/Preferably/More preferably) (serum of patient P18 (WDEIA)): Key

Substance: 1806 (ELEALPK; REGION 1..7: note = epitope) [compound 1806]
- epitope sequence binding to IgE antibody, rank (Key/Preferably/More preferably) (serum of patient P22 (WDEIA)): Key

Substance: 1807 (PKFLKNG; REGION 1..7: note = epitope) [compound 1807]
- epitope sequence binding to IgE antibody, rank (Key/Preferably/More preferably) (serum of patient P22 (WDEIA)): Key

Substance: 1809 (ELEALPKFL; REGION 1..9: note = epitope) [compound 1809]
- epitope sequence binding to IgE antibody, rank (Key/Preferably/More preferably) (serum of patient P26 (WDEIA)): Preferably

Substance: 1811 (ALPKFLKNG; REGION 1..9: note = epitope) [compound 1811]
- epitope sequence binding to IgE antibody, rank (Key/Preferably/More preferably) (serum of patient P26 (WDEIA)): Preferably

Substance: 1814 (KELEAL; REGION 1..6: note = epitope) [compound 1814]
- epitope sequence binding to IgE antibody, rank (Key/Preferably/More preferably) (serum of patient P27 (WDEIA)): Key

Substance: 1815 (PKFLK; REGION 1..5: note = epitope) [compound 1815]
- epitope sequence binding to IgE antibody, rank (Key/Preferably/More preferably) (serum of patient P29 (WDEIA)): Key

Substance: 1816 (LEALPKFL; REGION 1..8: note = epitope) [compound 1816]
- epitope sequence binding to IgE antibody, rank (Key/Preferably/More preferably) (serum of patient P30 (WDEIA)): Key

Substance: 1817 (SGKELE; REGION 1..6: note = epitope) [compound 1817]
- epitope sequence binding to IgE antibody, rank (Key/Preferably/More preferably) (serum of patient P32 (WDEIA)): Key

Substance: 1818 (PKFL; REGION 1..4: note = epitope) [compound 1818]
- epitope sequence binding to IgE antibody, rank (Key/Preferably/More preferably) (serum of patient P32 (WDEIA)): Key

Substance: 1819 (SGKELEALPK; REGION 1..10: note = epitope) [compound 1819]
- epitope sequence binding to IgE antibody, rank (Key/Preferably/More preferably) (serum of patient P33 (WDEIA)): Key

Substance: 1820 (PKFLK; REGION 1..5: note = epitope) [compound 1820]
- epitope sequence binding to IgE antibody, rank (Key/Preferably/More preferably) (serum of patient P33 (WDEIA)): Key

Substance: 1821 (SGKELEALPK; REGION 1..10: note = epitope) [compound 1821]
- epitope sequence binding to IgE antibody, rank (Key/Preferably/More preferably) (serum of patient P34 (WDEIA)): Key

Substance: 1822 (SGKELEALPK; REGION 1..10: note = epitope) [compound 1822]
- epitope sequence binding to IgE antibody, rank (Key/Preferably/More preferably) (serum of patient P35 (WDEIA)): Key

Substance: 1823 (LPKFL; REGION 1..5: note = epitope) [compound 1823]
- epitope sequence binding to IgE antibody, rank (Key/Preferably/More preferably) (serum of patient P35 (WDEIA)): Key

Substance: 1824 (LPKFLK; REGION 1..6: note = epitope) [compound 1824]
- epitope sequence binding to IgE antibody, rank (Key/Preferably/More preferably) (serum of patient P36 (WDEIA)): Key

Substance: 1825 (LPKF; REGION 1..4: note = epitope) [compound 1825]
- epitope sequence binding to IgE antibody, rank (Key/Preferably/More preferably) (serum of patient P52 (child, general immediate type allergy to wheat)): Key

Substance: 1826 (PKFL; REGION 1..4: note = epitope) [compound 1826]
- epitope sequence binding to IgE antibody, rank (Key/Preferably/More preferably) (serum of patient G1 (adult, general immediate type allergy to wheat)): Key

Substance: 1828 (LEALPKFLK; REGION 1..9: note = epitope) [compound 1828]
- epitope sequence binding to IgE antibody, rank (Key/Preferably/More preferably) (serum of patient G4 (adult, general immediate type allergy to wheat)): Key

Substance: 1830 (LPKFL; REGION 1..5: note = epitope) [compound 1830]
- epitope sequence binding to IgE antibody, rank (Key/Preferably/More preferably) (serum of patient G6 (adult, general immediate type allergy to wheat)): Key

Substance: 1832 (KELE; REGION 1..4: note = epitope) [compound 1832]
- epitope sequence binding to IgE antibody, rank (Key/Preferably/More preferably) [1]: Key

Substance: 1833 (KFLKN; REGION 1..5: note = epitope) [compound 1833]
- epitope sequence binding to IgE antibody, rank (Key/Preferably/More preferably) [1]: Key

Substance: 1837 (VRTLQRT; REGION 1..7: note = epitope) [compound 1837]
- epitope sequence binding to IgE antibody, rank (Key/Preferably/More preferably) (serum of patient P3 (WDEIA)): Preferably

Substance: 1838 (RTLQ; REGION 1..4: note = epitope) [compound 1838]
- epitope sequence binding to IgE antibody, rank (Key/Preferably/More preferably) (serum of patient P3 (WDEIA)): Key

Substance: 1839 (TVRTLQR; REGION 1..7: note = epitope) [compound 1839]
- epitope sequence binding to IgE antibody, rank (Key/Preferably/More preferably) (serum of patient P5 (WDEIA)): Preferably

Substance: 1840 (RTLQ; REGION 1..4: note = epitope) [compound 1840]
- epitope sequence binding to IgE antibody, rank (Key/Preferably/More preferably) (serum of patient P5 (WDEIA)): Key

Substance: 1841 (YTVRTLQ; REGION 1..7: note = epitope) [compound 1841]
- epitope sequence binding to IgE antibody, rank (Key/Preferably/More preferably) (serum of patient P8 (WDEIA)): Preferably

Substance: 1842 (TVRTLQ; REGION 1..6: note = epitope) [compound 1842]
- epitope sequence binding to IgE antibody, rank (Key/Preferably/More preferably) (serum of patient P8 (WDEIA)): Key

Substance: 1843 (TVRTLQR; REGION 1..7: note = epitope) [compound 1843]
- epitope sequence binding to IgE antibody, rank (Key/Preferably/More preferably) (serum of patient P9 (WDEIA)): Preferably

Substance: 1844 (TVRTLQ; REGION 1..6: note = epitope) [compound 1844]
- epitope sequence binding to IgE antibody, rank (Key/Preferably/More preferably) (serum of patient P9 (WDEIA)): Key

Substance: 1845 (YTVRTLQR; REGION 1..8: note = epitope) [compound 1845]
- epitope sequence binding to IgE antibody, rank (Key/Preferably/More preferably) (serum of patient P12 (WDEIA)): Preferably

Substance: 1846 (TVRTLQR; REGION 1..7: note = epitope) [compound 1846]
- epitope sequence binding to IgE antibody, rank (Key/Preferably/More preferably) (serum of patient P12 (WDEIA)): Key

Substance: 1848 (YTVRTLQRT; REGION 1..9: note = epitope) [compound 1848]
- epitope sequence binding to IgE antibody, rank (Key/Preferably/More preferably) (serum of patient P16 (WDEIA)): More preferably

Substance: 1849 (TVRTLQR; REGION 1..7: note = epitope) [compound 1849]
- epitope sequence binding to IgE antibody, rank (Key/Preferably/More preferably) (serum of patient P16 (WDEIA)): Preferably

Substance: 1850 (VRTLQ; REGION 1..5: note = epitope) [compound 1850]
- epitope sequence binding to IgE antibody, rank (Key/Preferably/More preferably) (serum of patient P16 (WDEIA)): Key

From US20240393292A1, “ALLERGY ANTIGEN AND EPITOPE THEREOF” (HOYU CO., LTD., priority 2019, published 2024)
